Assay: Stability and excipient compatibility of the compound in oral solution
Assay type: physicochemical
Excerpt: Solutions of (1S,4R)-cis-4-[2-amino-6-cyclopropylamino)-9H-purin-9-yl]-2-cyclopentene-1-methanol are bitter-tasting and therefore require the addition of sweeteners and taste-maskers. However, formulation of (1S,4R)-cis-4-[2-amino-6-cyclopropylamino)-9H-purin-9-yl]-2-cyclopentene-1-methanol in solution is difficult because materials containing a —COOH group present problems with (1S,4R)-cis-4-[2-amino-6-cyclopropylamino)-9H-purin-9-yl]-2-cyclopentene-1-methanol compatibility.
Advantageously, the pH may be 3.8 to 4.5.

adduct formation with sorbitol and/or saccharin (in solution): do not lead to the formation of adducts | compatibility with combinations of fructose, acesulfame and saccharin (in solution): compatible | compatibility with sorbitol or saccharin or a combination of sorbitol and saccharin (in solution): compatible | adduct formation with glucose (in solution, glucose replaces the methanol group on the cyclopentyl ring): forms an adduct | compatibility with sucrose and glucose (in solution, sucrose degrades to glucose and fructose): incompatible | effect of addition of a metal chelator on stability in solution (metal chelator, for example citrate): improves the stability
SMILES: Nc1nc(NC2CC2)c2ncn([C@H]3C=C[C@@H](CO)C3)c2n1 [abacavir]
appearance of solutions containing sorbitol (pH 4.5-6.5): color change and the formation of dark colored particulates | effect of lowering the pH on color change and particulates (pH lowered to about 4.0): eliminates the color change and the formation of particulates

Source: patent US6641843B1, “Pharmaceutical compositions” (SmithKline Beecham Corporation, priority 1998, dated 2003)
